Experimental data as given in patent publication US11612601B1, “Targeting epidermal growth factor to treat vascular calcification” (THE FLORIDA INTERNATIONAL UNIVERSITY BOARD OF TRUSTEES, priority 2022, dated 2023).

Assays:
Osteoblasts (hFOB 1.19) = assay: Osteoblast osteogenic gene expression, intracellular TNAP activity and CAV1; assay type: cell-based, human; details: 7 days
Method: Osteoblasts (from human fetus, hFOB 1.19, ATCC, CRL-11372) were cultured and grown in DMEM containing 10% v/v bovine calf serum and 1% v/v penicillin-streptomycin. Osteoblasts (passage 4-6) were harvested using 0.25% trypsin-EDTA solution (Caisson Labs, TRL01), seeded with a density of 5,200 cell.cm^−2, and incubated for 24 hours at 37° C. and 5% CO2 with controlled humidity. The cells were treated in three groups of control, OS, and OS supplemented with tyrphostin AG1478 (2.5 μM) for 21 days and media changed every three days. […] Similar to the VSMC experiments, EV-free media were added to the cultures on days 6, 13, and 20, and collected 24 hours later on days 7, 14, and 21. Collected media were centrifuged at 1,000×g for 5 min to remove cell debris. EVs were isolated using the ultracentrifugation at 100,000×g for 1 hour.
Following 7 or 14 days of treatment with control, OS, and OS plus EGFR inhibitor media, VSMCs and osteoblasts were lysed in 1 mL TRIzol solution (Invitrogen, 15596018). Total RNA was isolated according to the manufacturer's protocol. To perform the quantitative real time polymerase chain reaction (qRT-PCR), Power SYBR Green RNA-to-CT 1-Step Kit (Applied Biosystems, 4391178) was used. 50 ng isolated template RNA were added to each reaction for qRT-PCR. The results were normalized relative to Glyceraldehyde 3-phosphate dehydrogenase (GAPDH) expression level as the housekeeping control. The relative gene expression levels were calculated using comparative CT method, considering control groups as the reference.
The following human primer sequences were purchased from Integrated DNA Technologies (IDT); GAPDH Forward: […] (SEQ ID NO: 1) and Reverse: […] (SEQ ID NO: 2); RUNX2 Forward: […] (SEQ ID NO: 3) and Reverse: […] (SEQ ID NO: 4); ALPL Forward: […] (SEQ ID NO: 5) and Reverse: […] (SEQ ID NO: 6); Osteocalcin Forward: TCACACTCCTCGCCCTATT (SEQ ID NO: 7) and Reverse: […] (SEQ ID NO: 8).
To assess the activity of intracellular tissue non-specific alkaline phosphatase (TNAP), a colorimetric assay kit (BioVision, K412) was used. VSMCs (n=3) after 14 days and osteoblasts (n=3) after 7 days, were lysed in 120 μL assay buffer. 80 μL of each sample were mixed with 50 μL of 5 mM pNPP solution and incubated for 60 min at 25° C. The colorimetric change resulting from the reaction was detected using a plate reader to measure absorbance at 405 nm. The results were normalized to the total protein for associated samples measured by a BCA protein assay (BioVision, K813).
VSMCs, osteoblasts, isolated EVs (either from cells or mouse aortas), and matrix vesicles (from osteoblasts) were lysed in RIPA lysis and extraction buffer supplemented with protease inhibitor. After adding Laemmli SDS-sample buffer (1:4 v/v, Boston BioProducts, BP-110R) to each lysate, the samples were denatured at 100° C. for 10 min, loaded into 7.5-12% 1-mm SDS-PAGE gel (15 to 20 μg protein per lane), and run at 170 V. The proteins were then transferred to Trans-Blot turbo nitrocellulose membranes (BIO-RAD, 1704158) at 25 V for 7 min.
To quantify the total protein, the membranes were stained using 2% w/v Ponceau stain (Alfa Aesar, AAJ6074409) for 20 min, followed by one wash with 5% acetic acid and milliQ water for 5 min. After imaging, the intensity of each lane was measured in ImageJ for total protein normalization. Membranes were blocked with 5% w/v bovine serum albumin (HyClone, SH30574.01) in TBS-Tween (1×) for 1 hour. […]

[1] = test system: Primary human coronary artery vascular smooth muscle cells; assay: VSMC intracellular and cytosolic CAV1, EGFR, TNAP (immunoblot, activity assay, confocal); assay type: cell-based; details: OS + 2.5 μM, 14 days
Method: VSMCs were treated with control, OS, and OS supplemented with tyrphostin AG1478 (2.5 μM) for 14 days. At the experiment endpoint, using a subcellular protein fraction kit for cultured cells (Thermofisher, 78840), cytosolic fraction was isolated according to the manufacturer's protocol. Briefly, VSMCs were harvested using 0.25% trypsin solution and resuspended in cytoplasmic extraction buffer. After 10 min incubation at 4° C., the samples were centrifuged at 1000×g for 5 min and the supernatants were collected as cytosolic fractions. The protein concentration for aortic tissue and VSMC fractions were quantified using a BCA assay and samples were prepared for protein immunoblotting.
To quantify the total protein, the membranes were stained using 2% w/v Ponceau stain (Alfa Aesar, AAJ6074409) for 20 min, followed by one wash with 5% acetic acid and milliQ water for 5 min. After imaging, the intensity of each lane was measured in ImageJ for total protein normalization. Membranes were blocked with 5% w/v bovine serum albumin (HyClone, SH30574.01) in TBS-Tween (1×) for 1 hour. The membranes were incubated with primary antibodies of interest, including CAV1 (1:200, Abcam, ab2910), TNAP (1:200, Invitrogen, 702454), EGFR (1:00, EMD Millipore, 06-874), CD63 (1:200, Abeam, ab231975), GAPDH (1:100, Abcam, ab181602), and Annexin V (1:200, proteintech, 11060-1-AP) overnight at 4° C. After three washes with TBS-Tween (1×), the membranes were incubated with secondary antibody (1:1000, Li-Cor) for 1 hour, followed by three washes with TBS-Tween (1×). The protein bands were visualized with Odyssey CLx scanner (Li-Cor), and quantified using Image Studio Lite software (Li-Cor).
VSMCs were fixed after 14 days of culture using formalin (10%) for 15 min and washed with PBS. A solution of PBS and Triton X (0.1% v/v) permeabilized the plasma membrane for 10 min at room temperature. To avoid non-specific antibody binding, the cells were incubated with a blocking buffer solution, consisting of BSA (1% w/v) and glycine (22.5 mg/mL) in PBS for 30 min at room temperature. Next, the cells were incubated for 2 hours with primary antibody against CAV1 (1:200), and washed three times with PBS. Cells were then incubated with a secondary antibody, Alexa Fluor 594 (1:500, Abeam, ab150080) for 1 hour at room temperature, following by three washes with PBS. The nuclei were stained using DAPI (0.2 mg/mL, Cayman Chemical, 14285). […]

[2] = test system: Primary human coronary artery vascular smooth muscle cells; assay: VSMC extracellular matrix collagen (Sircol soluble collagen assay); assay type: cell-based; details: VSMCs, OS media, 2.5 μM, 28 days; p=0.10
Method: After 28 days of treatment, soluble collagen was extracted from the cultures using acetic acid (0.5 M) through overnight incubation at 4° C. A colorimetric assay, Sircol soluble collagen assay (Biocolor, S1000), measured the total soluble extracellular matrix (ECM) collagen in each group. Samples were prepared and assessed according to the manufacturer's protocol. Results were then normalized to the total protein measured using BCA assay.

COc1cc2ncnc(Nc3cccc(Cl)c3)c2cc1OC [AG1478, tyrphostin AG1478]
Gene expression of ALPL in osteoblasts (Osteoblasts (hFOB 1.19); OS + 2.5 μM vs OS, p=0.9): no significant differences | Gene expression of Osteocalcin (BGLAP) in osteoblasts (Osteoblasts (hFOB 1.19); OS + 2.5 μM vs OS, p=0.9): no significant differences | Gene expression of RUNX2 in osteoblasts (Osteoblasts (hFOB 1.19); OS + 2.5 μM): downregulation | intracellular TNAP activity in osteoblasts (Osteoblasts (hFOB 1.19); OS + 2.5 μM): significantly increased | intracellular CAV1 protein in osteoblasts (Osteoblasts (hFOB 1.19); OS + 2.5 μM, compared to control group, p=0.01): significantly increased | intracellular TNAP activity in VSMCs ([1]; compared to control): elevated | cytosolic TNAP in VSMCs ([1]; compared to control (p=0.003) and OS (p=0.005)): elevated | cytosolic CAV1 in VSMCs ([1]; compared to control (p=0.02) and OS (p=0.04)): elevated | total level of intracellular CAV1 in VSMCs ([1]; compared to control group): significantly increased | intracellular EGFR protein in VSMCs ([1]; p=0.84): prevented the OS-induced increase | ECM collagen accumulation [2]: did not affect
